For one assay, the target named is T1, TPM3-TRKA fusion protein (Homo sapiens, UniProt P04629).
T1 construct: The resulted chimeric proteins always retain the kinase domain of TRK proteins; TPM3 (fusion partner, N-terminal part of tropomyosin alpha-3, P06753); endogenous in cells; host or cells: KM12 colon cancer cells; the other entry of the earlier key: TPM3 (P06753, Tropomyosin alpha-3 chain)
As to the kind of experiment: TPM3-TRKA fusion protein levels in KM12 cells (Western blot). It is filed as cell-based. Conditions: 16 h, read-out: Degradation (at 10 nM). The gist of the method: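 KM12 colon cancer cells were treated with DMSO or compounds at 0.1–100 nM, 0.4–30 nM or other stated concentrations for 4, 8–16 or 16 h. RIPA lysates were BCA-normalized and resolved by SDS-PAGE. TPM3-TRKA was detected by chemiluminescent Western blot, with bands quantified by densitometry.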

A further assay deals with KM12 cells. Briefly: KM12 cell viability (CellTiter-Glo). It is filed as cell-based. Conditions: for IC50: Homo sapiens, 72 h, KM12 cell viability, 11-point 3-fold serial dilution, 3 days, CellTiter-Glo, read-out: IC50. The gist of the method: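 KM12 cells seeded at 5000 per well in RPMI 1640 + 10% FBS and exposed 3 days to serial dilutions (11-point 3-fold, 8-point 3-fold from 1000 nM, or 12-point 2-fold). Viability by CellTiter-Glo; IC50 from least-squares nonlinear regression.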
For orientation: In ATP-based viability assays light output follows the ATP content of the culture.

[1] abbreviates: TPM3-TRKA degradation in KM12 cells at 10 nM.

The term IC50 denotes the concentration that inhibits the measured activity by half.

Where two headings read alike, the source gives them in different places.

T1 sequence (P04629 with tags, fused parts or gaps): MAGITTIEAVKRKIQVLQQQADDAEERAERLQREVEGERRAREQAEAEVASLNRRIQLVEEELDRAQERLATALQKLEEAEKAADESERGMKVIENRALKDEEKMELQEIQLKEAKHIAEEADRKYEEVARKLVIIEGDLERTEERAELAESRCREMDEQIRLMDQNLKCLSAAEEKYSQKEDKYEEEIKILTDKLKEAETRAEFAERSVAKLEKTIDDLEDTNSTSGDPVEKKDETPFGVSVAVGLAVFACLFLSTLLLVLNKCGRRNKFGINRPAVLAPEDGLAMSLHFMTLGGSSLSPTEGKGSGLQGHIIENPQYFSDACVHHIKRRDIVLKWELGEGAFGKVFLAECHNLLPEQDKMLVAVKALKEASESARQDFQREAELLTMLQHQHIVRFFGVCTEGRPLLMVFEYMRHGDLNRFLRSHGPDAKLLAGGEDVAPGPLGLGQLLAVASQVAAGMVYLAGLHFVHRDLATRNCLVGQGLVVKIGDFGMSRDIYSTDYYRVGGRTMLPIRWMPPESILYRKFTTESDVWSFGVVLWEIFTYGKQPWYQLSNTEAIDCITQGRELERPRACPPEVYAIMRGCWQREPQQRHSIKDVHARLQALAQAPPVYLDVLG

`O=C1CCC(N2C(=O)c3cccc(NCCOCCOCCOCCC(=O)N4CCN(c5ccc(C(=O)Nc6n[nH]c7ccc(Cc8cc(F)cc(F)c8)cc67)c(NC6CCOCC6)c5)CC4)c3C2=O)C(=O)N1` (stereo not drawn) [CPD-057, N—(S-(3,5-Difluorobenzyl)-1H-indazol-3-yl)-4-(4-(3-(2-(2-(2-((2-(2,6-dioxopiperidin-3-yl)-1,3-dioxoisoindolin-4-yl)amino)ethoxy)ethoxy)ethoxy)propanoyl)piperazin-1-yl)-2-((tetrahydro-2H-pyran-4-yl)amino)benzamide]: the percent degradation of TPM3-TRKA protein at 0.01 µM on TPM3-TRKA fusion protein (TPM3-TRKA degradation in KM12 cells at 10 nM compound, category of percentage degradation) is over 80%. The “viability of KM12 cells” value in the assay with KM12 cells (500 nM, 12-point 2-fold serial dilution, 3 days (FIG. 4A)) is recorded as “inhibited the viability of KM12 cells”.

Regarding `O=C1CCC(N2C(=O)c3ccc(NCCCC(=O)N4CCC(Nc5cccc(C(=O)Nc6cnn7ccc(N8CCC[C@@H]8c8cc(F)ccc8F)nc67)n5)CC4)cc3C2=O)C(=O)N1` (stereo partly drawn) [CPD-470, N-(5-((R)-2-(2,5-difluorophenyl)pyrrolidin-1-yl)pyrazolo[1,5-a]pyrimidin-3-yl)-6-((1-(4-((2-(2,6-dioxopiperidin-3-yl)-1,3-dioxoisoindolin-5-yl)amino)butanoyl)piperidin-4-yl)amino)picolinamide], the percent degradation of TPM3-TRKA protein at 0.01 µM at TPM3-TRKA fusion protein (setting [1]) is over 80%. Also, the IC50 with KM12 cells is 21 nM.

With `O=C1CCC(N2C(=O)c3ccc(NCCCCCC(=O)N4CCC(Nc5cccc(C(=O)Nc6cnn7ccc(N8CCC[C@@H]8c8cc(F)ccc8F)nc67)n5)CC4)cc3C2=O)C(=O)N1` (stereo partly drawn) [CPD-471, N-(5-((R)-2-(2,5-difluorophenyl)pyrrolidin-1-yl)pyrazolo[1,5-a]pyrimidin-3-yl)-6-((1-(6-((2-(2,6-dioxopiperidin-3-yl)-1,3-dioxoisoindolin-5-yl)amino)hexanoyl)piperidin-4-yl)amino)picolinamide], the percent degradation of TPM3-TRKA protein at 0.01 µM at TPM3-TRKA fusion protein (setting [1]) is over 80%. Also, the concentration for half-maximal inhibition (IC50) in the assay on KM12 cells stood at 19 nM.

As for `O=C1CCC(N2C(=O)c3ccc(NCCCCCCCC(=O)N4CCC(Nc5cccc(C(=O)Nc6cnn7ccc(N8CCC[C@@H]8c8cc(F)ccc8F)nc67)n5)CC4)cc3C2=O)C(=O)N1` (stereo partly drawn) [CPD-472, N-(5-((R)-2-(2,5-difluorophenyl)pyrrolidin-1-yl)pyrazolo[1,5-a]pyrimidin-3-yl)-6-((1-(8-((2-(2,6-dioxopiperidin-3-yl)-1,3-dioxoisoindolin-5-yl)amino)octanoyl)piperidin-4-yl)amino)picolinamide], the percent degradation of TPM3-TRKA protein at 0.01 µM on TPM3-TRKA fusion protein (setting [1]) is over 80%. Moreover, in the assay on KM12 cells, the IC50 is 37 nM.

For the molecule `O=C1CCC(N2C(=O)c3ccc(NCCOCCC(=O)N4CCC(Nc5cccc(C(=O)Nc6cnn7ccc(N8CCC[C@@H]8c8cc(F)ccc8F)nc67)n5)CC4)cc3C2=O)C(=O)N1` (stereo partly drawn) [CPD-473, N-(5-((R)-2-(2,5-difluorophenyl)pyrrolidin-1-yl)pyrazolo[1,5-a]pyrimidin-3-yl)-6-((1-(3-(2-((2-(2,6-dioxopiperidin-3-yl)-1,3-dioxoisoindolin-5-yl)amino)ethoxy)propanoyl)piperidin-4-yl)amino)picolinamide], the percent degradation of TPM3-TRKA protein at 0.01 µM at TPM3-TRKA fusion protein (setting [1]) is over 80%. Also, the IC50 with KM12 cells turned out to be 24 nM.

For the molecule `O=C1CCC(N2C(=O)c3ccc(NCCOCCOCCC(=O)N4CCC(Nc5cccc(C(=O)Nc6cnn7ccc(N8CCC[C@@H]8c8cc(F)ccc8F)nc67)n5)CC4)cc3C2=O)C(=O)N1` (stereo partly drawn) [CPD-474, N-(5-((R)-2-(2,5-difluorophenyl)pyrrolidin-1-yl)pyrazolo[1,5-a]pyrimidin-3-yl)-6-((1-(3-(2-(2-((2-(2,6-dioxopiperidin-3-yl)-1,3-dioxoisoindolin-5-yl)amino)ethoxy)ethoxy)propanoyl)piperidin-4-yl)amino)picolinamide], on TPM3-TRKA fusion protein (setting [1]), the percent degradation of TPM3-TRKA protein at 0.01 µM was over 80%. Moreover, in the assay with KM12 cells, the IC50 came to 18 nM.

(Values after patent publication US12410171B2, “Tropomyosin receptor kinase (TRK) degradation compounds and methods of use” (Cullgen (Shanghai), Inc., priority 2020, dated 2025).)
